From publication PMC4150253 (ChemMedChem, 2014) come the findings set out here.

Format in all cases: biochemical
For test [1], the target named is CAT-Tip60 (221-512 aa) (Homo sapiens, UniProt Q92993). As to the kind of experiment: Radiometric filter binding HAT assay, Tip60 catalytic domain.
The target of test [2] is PCAF HAT domain (493-658) (Homo sapiens, UniProt Q92831). Nature of the test: Radiometric HAT assay, PCAF HAT domain.
Test [3] deals with FL-Tip60 (1-512 aa) (Homo sapiens, UniProt Q92993). As to the kind of experiment: Radiometric filter binding HAT assay, full-length Tip60.
Chain of FL-Tip60 (1-512 aa) (Q92993 1-512): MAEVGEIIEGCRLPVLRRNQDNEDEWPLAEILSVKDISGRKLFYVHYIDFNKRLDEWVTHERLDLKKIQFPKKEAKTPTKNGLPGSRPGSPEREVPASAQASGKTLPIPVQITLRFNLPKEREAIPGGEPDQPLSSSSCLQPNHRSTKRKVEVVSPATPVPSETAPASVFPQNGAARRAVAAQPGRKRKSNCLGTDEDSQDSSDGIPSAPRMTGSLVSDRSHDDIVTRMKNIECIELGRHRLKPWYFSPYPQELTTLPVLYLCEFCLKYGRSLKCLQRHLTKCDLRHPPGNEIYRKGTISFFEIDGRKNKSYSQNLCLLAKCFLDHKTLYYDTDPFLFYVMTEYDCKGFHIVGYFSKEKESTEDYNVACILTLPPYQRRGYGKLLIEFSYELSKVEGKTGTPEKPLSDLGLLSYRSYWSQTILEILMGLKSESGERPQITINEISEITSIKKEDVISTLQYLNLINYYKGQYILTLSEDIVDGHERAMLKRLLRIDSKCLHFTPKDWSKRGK

In general, IC50 refers to the point on the concentration scale where inhibition reaches its midpoint. Read a high IC50 as lower potency.

Chain of CAT-Tip60 (221-512 aa) (Q92993 221-512): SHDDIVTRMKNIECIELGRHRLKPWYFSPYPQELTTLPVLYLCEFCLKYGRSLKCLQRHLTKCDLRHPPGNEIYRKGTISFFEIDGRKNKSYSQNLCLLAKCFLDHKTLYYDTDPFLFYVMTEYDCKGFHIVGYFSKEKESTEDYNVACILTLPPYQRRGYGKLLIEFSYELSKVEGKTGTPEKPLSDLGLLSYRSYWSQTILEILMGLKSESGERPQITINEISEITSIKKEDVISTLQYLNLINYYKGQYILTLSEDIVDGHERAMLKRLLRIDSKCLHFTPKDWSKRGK
Chain of PCAF HAT domain (493-658) (Q92831 493-658): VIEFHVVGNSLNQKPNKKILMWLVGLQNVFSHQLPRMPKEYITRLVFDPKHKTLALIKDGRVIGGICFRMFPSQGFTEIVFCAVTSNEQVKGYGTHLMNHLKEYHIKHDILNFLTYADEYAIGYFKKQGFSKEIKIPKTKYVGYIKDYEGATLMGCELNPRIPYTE

Consider `CC(C)(COP(=O)(O)OP(=O)(O)OC[C@H]1O[C@@H](n2cnc3c(N)ncnc32)[C@H](O)[C@@H]1OP(=O)(O)O)[C@@H](O)C(=O)NCCC(=O)NCCS` [CoASH], for which the values for the IC50 in test [1], in test [2] and in test [3] were 16 ± 3.1 µM, 8.4 ± 0.4 µM and 9.1 ± 1 µM, respectively.
